{"source": "patent US20040229947A1", "about": "“Method of treating hyperactive bladder using phenoxyacetic acid derivatives” (KISSEI PHARMACEUTICAL CO., LTD., priority 2003, published 2004)", "key": {"isolated monkey detrusor": {"test_system": "isolated monkey detrusor", "experiment": "Effects on the tone of the isolated monkey detrusor (Magnus method)", "conditions": "isolated cynomolgus monkey detrusor; for EC50: Primates, read-out: EC50, reduction of the tone of the isolated monkey detrusor", "method": "(§1) The detrusor of the cynomolgus monkey (both sexes) was isolated and dissected. Tracheal, atrial and urethral dissections were also prepared. Then the effect of (−)-2-[4-(2-{[(1S,2R)-2-hydroxy-2-(4-hydroxyphenyl)-1-methylethyl]amino}ethyl)-2,5-dimethylphenoxy] acetic acid on the tone of the detrusor preparation was tested. Carbachol-induced tonic contractions of the tracheal preparations, the heart rate of the atrial preparations and endothelin-1-induced tonic contractions of the urethral preparations were also investigated using the Magnus method."}, "isolated trachea": {"test_system": "isolated trachea", "experiment": "Carbachol-induced tonic contraction of isolated tracheal preparations (beta 2-AR-stimulated function)", "design": "species or system cynomolgus monkey", "conditions": "for effect on carbachol-induced tonic contraction of the isolated trachea: beta 2-AR-stimulated function", "method": "as §1"}, "isolated atria": {"test_system": "isolated atria", "experiment": "Heart rate of isolated atrial preparations (beta1-AR-stimulated function)", "design": "species or system cynomolgus monkey", "method": "as §1"}, "isolated urethra": {"test_system": "isolated urethra", "experiment": "Endothelin-1-induced tonic contraction of isolated urethral preparations", "design": "species or system cynomolgus monkey", "method": "as §1"}, "[1]": {"test_system": "PGE2-induced bladder hyperactivity", "experiment": "Prostaglandin (PG) E2-induced rat overactive bladder model, cystometrogram in conscious rats", "assay_type": "in vivo", "conditions": "intragastric, 0.1, 1 or 10 mg/kg as free body, 1, 2, 4 hours after administration", "method": "Rats were anesthetized with pentobarbital sodium. Each cannula was implanted into the urinary bladder and stomach, tunneled subcutaneously and secured on the back of the neck and closed. Seven days after the cannula implantation, cystometrogram of the freely-moved conscious rats were measured. Saline was continuously instilled into the bladder at a rate of 6 mL/hour, and after the cystometric parameters were stabilized, PGE2 (60 μmol/L)-containing saline was instilled continuously instead of the saline into the bladder. After the stable shortening of the micturition interval was confirmed under the condition, ethyl(−)-2-[4-(2-{[(1S,2R)-2-hydroxy-2-(4-hydroxyphenyl) -1-methylethyl]amino}ethyl)-2,5-dimethylphenoxy] acetate hydrochloride (0 (vehicle), 0.1, 1 or 10 mg/kg as doses of the free body) was administered intragastrically. Cystometric parameters were measured for 4 hours after the administration and were expressed as a percentage to those at the pre-administration (0 hour)."}, "[2]": {"test_system": "spinal cord injury-induced overactive bladder", "experiment": "Spinal cord injury-induced overactive bladder model, cystometrogram", "assay_type": "in vivo, rat", "conditions": "intragastric, 10 mg/kg as free body; 1 hour after administration; FIG. 7", "method": "In ether anesthetized rats, spinal transactions were performed at the level of Th9-Th10. Each rat was treated with amikacin 10 mg/body, i.m. for 7 days, and micturition management was done 2 times/day for 2 weeks to prevent over-distension of the bladder. About 6 weeks after the spinal cord operation, rats were anesthetized with pentobarbital sodium and each cannula (PE-50: Nihon Becton Dickinson) was implanted into the urinary bladder and stomach, tunneled subcutaneously, secured on the back of the neck and closed. Seven days after the cannula implantation, cystometrogram was performed. Saline was instilled into the urinary bladder at a rate of 12 mL/hour. The saline instillation was stopped every micturition. After the stable spontaneous small bladder contraction in filling phase was confirmed, ethyl (—)-2-[4-(2-{[(1S,2R)-2-hydroxy-2-(4-hydroxyphenyl)-1-methylethyl]amino}ethyl)-2,5-dimethylphenoxy] acetate hydrochloride (0 (vehicle) or 10 mg/kg as dose of free body) was administered intragastrically. The micturition parameter at 1 hour after the administration of ethyl (−)-2-[4-(2-{[(1S,2R)-2-hydroxy-2-(4-hydroxyphenyl)-1-methylethyl]amino}ethyl)-2,5-dimethylphenoxy] acetate hydrochloride was measured and was expressed as a percentage to that at the pre-administration (0 hour)."}, "[3]": {"test_system": "lower urinary tract partially obstructed overactive bladder", "experiment": "Lower urinary tract partially obstructed rat overactive bladder model, cystometrogram", "assay_type": "in vivo", "conditions": "intragastric", "method": "Rats were anesthetized with pentobarbital sodium. After urethra was ligated with a tube (width: 1 mm) by thread, the tube was removed. Six weeks after the lower urinary tract operation, the implanted thread was removed, and each cannula was implanted into the urinary bladder and stomach, tunneled subcutaneously and secured on the back of the neck and closed. The next day, cystometrogram of freely-moved conscious rats were measured. Saline was instilled into the urinary bladder at a rate of 12 mL/hour. The saline instillation was stopped every micturition. After the stable spontaneous small bladder contraction in filling phase was confirmed, ethyl (−)-2-[4-(2-{[(1S,2R)-2-hydroxy-2-(4-hydroxyphenyl)-1-methylethyl]amino}ethyl)-2,5-dimethylphenoxy] acetate hydrochloride (0 (vehicle), 1 or 10 mg/kg as doses of free body) or tolterodine (10 mg/kg) was administered intragastrically. The micturition parameters at 1 hour after the administration of ethyl (−)-2-[4-(2-{[(1S,2R)-2-hydroxy-2-(4-hydroxyphenyl)-1-methylethyl]amino}ethyl)-2,5-dimethylphenoxy] acetate hydrochloride or tolterodine were measured and were expressed as a percentage to that at the pre-administration (0 hour)."}}, "data": [{"smiles": "Cc1cc(OCC(=O)O)c(C)cc1CCN[C@@H](C)[C@H](O)c1ccc(O)cc1", "note": "[(−)-2-[4-(2-{[(1S,2R)-2-hydroxy-2-(4-hydroxyphenyl)-1-methylethyl]amino}ethyl)-2,5-dimethylphenoxy] acetic acid]", "values": [{"measurement": "EC50", "setting": "isolated monkey detrusor", "result": 820, "unit": "nM"}, {"measurement": "effect on carbachol-induced tonic contraction of the isolated trachea", "setting": "isolated trachea", "result": "less effect"}, {"measurement": "detrusor selectivity compared with the trachea", "setting": "isolated trachea; detrusor versus trachea", "result": "about 1200 times"}, {"measurement": "effect on heart rate of the isolated atria", "setting": "isolated atria; beta1-AR-stimulated function", "result": "less effect"}, {"measurement": "detrusor selectivity compared with the atria", "setting": "isolated atria; detrusor versus atria", "result": "~80", "unit": "times"}, {"measurement": "effect on endothelin-1-induced tonic contraction of the isolated urethra", "setting": "isolated urethra", "result": "no effect"}]}, {"smiles": "CCOC(=O)COc1cc(C)c(CCN[C@@H](C)[C@H](O)c2ccc(O)cc2)cc1C.Cl", "note": "[Compound 1, ethyl (−)-2-[4-(2-{[(1S,2R)-2-hydroxy-2-(4-hydroxyphenyl)-1-methylethyl]amino}ethyl)-2,5-dimethyl-phenoxy] acetate hydrochloride]", "values": [{"measurement": "micturition interval", "setting": "[1]; FIGS. 1 to 3", "result": "prolonged the micturition interval"}, {"measurement": "micturition volume", "setting": "[1]; FIGS. 4 to 6", "result": "increased the micturition volume dose-dependently"}, {"measurement": "frequency of spontaneous small bladder contraction in filling phase", "setting": "[2]", "result": "decreased the frequency"}, {"measurement": "amplitude of spontaneous small bladder contractions in filling phase", "setting": "[3]; 1 or 10 mg/kg as free body, 1 hour after administration, FIG. 8", "result": "decreased the amplitude"}, {"measurement": "frequency of spontaneous small bladder contractions in filling phase", "setting": "[3]; 1 or 10 mg/kg as free body, 1 hour after administration, FIG. 9", "result": "decreased"}, {"measurement": "micturition pressure", "setting": "[3]; 1 or 10 mg/kg as free body, 1 hour after administration, FIG. 10", "result": "did not affect the micturition pressure"}, {"measurement": "potency on spontaneous small bladder contractions relative to tolterodine", "setting": "[3]; tolterodine 10 mg/kg, FIGS. 8 and 9", "result": "stronger than that of tolterodine"}]}, {"smiles": "CC(C)NCC(O)c1ccc(O)c(O)c1", "note": "(centres unmarked) [isoproterenol, reference compound]", "values": [{"measurement": "EC50", "setting": "isolated monkey detrusor", "result": 190, "unit": "nM"}, {"measurement": "effect on carbachol-induced tonic contraction of the isolated trachea", "setting": "isolated trachea", "result": "reduced the carbachol-induced tonic contraction"}]}, {"smiles": "CCN(CC)CC#CCOC(=O)C(O)(c1ccccc1)C1CCCCC1", "note": "(centres unmarked) [oxybutynin]", "values": [{"measurement": "relaxation of the isolated monkey detrusor", "setting": "isolated monkey detrusor", "result": "No significant relaxation"}]}, {"smiles": "CCCOC(C(=O)OC1CCN(C)CC1)(c1ccccc1)c1ccccc1", "note": "[propiverine]", "values": [{"measurement": "relaxation of the isolated monkey detrusor", "setting": "isolated monkey detrusor", "result": "No significant relaxation"}]}]}
